Test results taken from patent publication US20190076357A1 (SHANGHAI WEI ER BIOPHARMACEUTICAL TECHNOLOGY CO., LTD., priority 2016, published 2019).

Legend:
[1] = Drug-forming properties of paclitaxel palmitate preparations (dose forms and preparation methods); type: physicochemical; details: drug loading 3 mg/mL
Method: 300 mg paclitaxel palmitate, 3.5 g high-purity egg yolk lecithin (EPCS), and 0.3 g DSPE-PEG2000 were weighed out, added with 3 g propylene glycol, and dissolved at 65° C. to obtain an organic phase; 85 g water was weighed out, and dissolved by stirring and heated at 65° C. to obtain an aqueous phase. The organic phase was injected into the aqueous phase by stirring, and mixed to obtain a crude liposome, which was then placed in an extruder, and sequentially extruded through an extrusion film with a pore size of 0.4 μm, 0.2 μm, 0.1 μm, and 0.05 μm, and added with water to 100 ml. pH was adjusted to 4.5 with hydrochloric acid. The filter was sterilized by filtration through a 0.22 μm filter to obtain liposomal paclitaxel palmitate formulations.
0.3 g paclitaxel palmitate and 0.3 g (or 1.5 g, or 3 g, or 6 g, or 9 g) polyethylene glycol monomethyl ether-polylactic acid were weighed out and dissolved in an appropriate amount of acetonitrile. […]

[2] = Solubility in medium chain oil; type: physicochemical; details: oil or lipid

appearance [1]: completely clarified
solubility [2]: < 5000 µg/mL
SMILES: CC(=O)O[C@H]1C(=O)[C@@]2(C)[C@H]([C@H](OC(=O)c3ccccc3)[C@]3(O)C[C@H](OC(=O)[C@H](O)[C@@H](NC(=O)c4ccccc4)c4ccccc4)C(C)=C1C3(C)C)[C@]1(OC(C)=O)CO[C@@H]1C[C@@H]2O [paclitaxel, Paclitaxel]
